In paper PMC5485972, “N-Caffeoyltryptamine, a Potent Anti-Inflammatory Phenolic Amide, Suppressed MCP-1 Expression in LPS-stimulated THP-1 Cells and Rats Fed a High-Fat Diet” (International Journal of Molecular Sciences, 2017):

Legend:
p38 MAP kinase β = target: T1, p38 MAP kinase β (Homo sapiens, UniProt Q15759); assay: Promega CMGC-1 kinase selectivity profiling system, ADP-Glo kinase assay; assay type: biochemical
T1 construct: gene MAPK11

p38 MAP kinase α = target: T2, p38 MAP kinase α (Homo sapiens, UniProt Q16539); assay: as above; assay type: biochemical
T2 construct: gene MAPK14
T2 sequence (Q16539 2-360): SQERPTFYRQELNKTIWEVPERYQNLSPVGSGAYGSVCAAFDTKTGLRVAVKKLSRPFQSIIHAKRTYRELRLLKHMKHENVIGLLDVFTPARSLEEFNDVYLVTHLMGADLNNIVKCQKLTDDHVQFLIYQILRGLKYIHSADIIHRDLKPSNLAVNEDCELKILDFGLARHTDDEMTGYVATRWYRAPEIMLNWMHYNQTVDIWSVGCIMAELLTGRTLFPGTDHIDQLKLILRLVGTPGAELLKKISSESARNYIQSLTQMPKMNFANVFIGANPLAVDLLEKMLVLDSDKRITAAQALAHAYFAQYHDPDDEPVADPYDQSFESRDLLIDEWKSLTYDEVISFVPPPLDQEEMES

T1 sequence (Q15759 whole entry): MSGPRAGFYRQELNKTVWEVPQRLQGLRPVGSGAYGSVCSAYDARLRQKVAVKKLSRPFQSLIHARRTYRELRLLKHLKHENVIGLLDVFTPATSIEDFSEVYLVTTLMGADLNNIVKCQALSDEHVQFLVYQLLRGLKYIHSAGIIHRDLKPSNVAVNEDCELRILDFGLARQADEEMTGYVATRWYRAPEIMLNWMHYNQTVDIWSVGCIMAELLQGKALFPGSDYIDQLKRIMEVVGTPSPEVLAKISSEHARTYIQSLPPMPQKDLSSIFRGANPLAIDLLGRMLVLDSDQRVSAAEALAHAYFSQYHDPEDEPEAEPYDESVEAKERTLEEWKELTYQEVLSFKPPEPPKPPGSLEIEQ

IC50 (p38 MAP kinase β): 18.3 µM
IC50 (p38 MAP kinase α): 16.7 µM
SMILES: O=C(/C=C/c1ccc(O)c(O)c1)NCCc1c[nH]c2ccccc12 [N-caffeoyltryptamine]
